Columns and labels:
Naïve CD4 cells = test: T cell stimulation and skewing of naive CD4 cells; type: cell-based, mouse
Description: Naïve CD4 cells were isolated from mice splenocytes and activated in vitro with anti-CD3 and CD28 in the presence of TGF-β or IL4 to induce development of Treg or Th2 CD4+ cells respectively. After 72 hours, intranuclear expressions of Foxp3 or GATA3 were quantitated by flow cytometry to determine percentage of Treg or Th2 cells respectively. […] In addition, the relative proportion of Th2 and Th1 CD4+ cells was quantified by labeling for T-bet. […] Next, the functional consequence of Th1 CD4+ cell with LB-100 treatment was explored. […] This was shown with both intracellular staining (FIG. 38D) and measurement of cytokine secretion (FIG. 38E-F).
T cell stimulation and skewing—Naïve CD4 cells were isolated from mice splenocytes (StemCell). Cells were activated for 3 days using immobilized anti-CD3 (10 ug/ml) and soluble anti-CD28 (2 ug/ml). Skewing conditions were as follows: TH1, 1 .ig/mL anti-IL4, 5 ng/mL IL2, and 10 ng/mL IL12; TH2, 1 .ig/mL anti-IFN-7, 5 ng/mL IL2, and 10 ng/mL IL4; Treg, 1 .ig/mL anti-IFNγ, and 1 ig/mL anti-IL4, and 2 ng/mL TGFβ1. Bead-based multianalyte flow immunoassays (BD Bioscience) were used to measure cytokine production in the supernatant per manufacturer's instruction. Absolute cell numbers were quantified with flow cytometry using counting beads (Biolegend).

clinical = type: in vivo, human; conditions: in vivo; for half-life: 2.33 mg/m2, T1/2
Description: The main objective was to determine the safety, tolerability, and maximum tolerated dose of LB-100 given intravenously daily for three consecutive days every 3 weeks. The secondary objectives were to document any evidence of potential anti-tumor activity and obtain pharmacokinetic data on LB-100 and a metabolite, endothall, in patients receiving LB-100 at the MTD (Quang et al., 2016).
The plasma concentrations of LB-100 and endothall were measured (Quang et al., 2016) prior to and over 4 hours after completion of the 2-hour infusion at the MTD of 2.33 mg/m2 of LB-100 on day 1 in one patient and on day 1 and 3 in two patients. […] Plasma concentrations of endothall were low throughout the infusion, being below the lower limit of detection (5 ng/mL) in one patient.

[1] = tested on: mTORC1, mTORC2 and PI(3)K-AKT pathways; test: Phosphoflow of AKT and S6 in activated CD3 cells; type: cell-based, mouse; conditions: after 3 hours of activation
Description: After 3 hours of in vitro activation of isolated CD3 cells, the activity of mTORC1, mTORC2 and PI(3)K-AKT pathways were assessed by checking the phosphorylation of ribosomal S6 protein (S6), AKT at […] and AKT at Thr308 respectively. […] This difference was not observed in any of the 3 pathways at an early time point of 30 minutes after activation (FIG. 37).
Isolation of TILs—Mice were injected in the right thoracic flank with 0.5×10^6 CT26 cells and treated as above after tumors reached between 50-100 mm^3. After 2 treatments, mice were sacrificed and tumors excised. Tumors were subjected to mechanical disruption using a GentleMACS Dissociator (Miltenyi Biotec) in presence of enzymatic digestion using Tumor Dissociation Kit (Miltenyi Biotec). Intracellular cytokine staining, phosphoflow and flow cytometry—Suspensions containing T cells were stained with a fixable live/dead stain (Invitrogen) in PBS followed by surface antibody staining in FACS buffer (PBS with 0.5% BSA and 0.1% sodium azide). For intracellular staining, cells were stained for surface molecules following by fixation and permeabilization (eBioscience). For cytokine staining, cells were first stimulated with Cell Stimulation Cocktail (eBioscience) containing PMA/Ionomycin and protein transport inhibitor prior to undergoing staining. […] Cells were analyzed by flow cytometry (LSRII; BD Bioscience). […]

CN1CCN(C(=O)C2C(C(=O)O)[C@H]3CC[C@@H]2O3)CC1 (stereo partly drawn) [LB-100]
frequency of GATA3 expressing cells relative to Tbet expressing cells (Naïve CD4 cells): decreased significantly
induction of Foxp3 by TGF-β (Naïve CD4 cells; 72 hours, dose dependent): significantly impaired
induction of GATA3 by IL-4 (Naïve CD4 cells; 72 hours, dose dependent): significantly impaired
TNF-α and IL2 secretion (Naïve CD4 cells; Th1 and Th2 conditions): increased
IFN-γ expression (Naïve CD4 cells; Th1 and Th2 skewing conditions): dose dependent increase
Secretion of IL4 (Naïve CD4 cells; Th2 conditions): decreased
half-life (clinical; female, human): 81 min
pharmacokinetics of LB-100, in words (clinical): low clearance, low volume of distribution, and a short half-life
T1/2 (clinical; male, human, 2.33 mg/m2): 57 min
half-life (clinical; male, human): 66 min
activity of mTORC1 as measured by phosphorylation of S6 [1]: dose dependent increase
mTORC2 and PI(3)K-AKT pathways (AKT phosphorylation) [1]: minimal effect
